We go through 19 molecules from patent US10287267B2, “Isoquinolin-3-yl carboxamides and preparation and use thereof” (Samumed, LLC, priority 2016, dated 2019).

Assay [1] has as its system Wnt pathway (Sp5-Luc reporter, TCF/LEF binding sites) in SW480 colon carcinoma cells. Kind of assay: Screening assay for Wnt activity: Sp5-Luc reporter gene assay.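 For all read-outs here: firefly luciferase luminescence read in stably transduced SW480 cells carrying the Sp5 promoter reporter with eight TCF/LEF sites, compounds given in 0.1% DMSO final.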 As to conditions: Homo sapiens; for EC50: Sp5-Luc reporter, SW480 cells, 36 to 48 hours. The format is cell-based, human. In general terms: Reporter assays use an easily measured gene product as a stand-in for the process of interest.
Experimental: The screening assay for Wnt activity is described as follows.
Following incubation, 15 μl of BriteLite Plus luminescence reagent (Perkin Elmer) was added to each well of the 384-well assay plates. The plates were placed on an orbital shaker for 2 min and then luminescence was quantified using the Envision (Perkin Elmer) plate reader.

The target of assay [2] is recombinant DYRK1A kinase (Homo sapiens (Human), UniProt Q13627). Kind of assay: DYRK1A kinase assay (Ser/Thr 18 peptide Z-lyte FRET).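 Note: Read-out is the coumarin to fluorescein emission ratio, referenced to unphosphorylated (0%) and phosphorylated (100%) Ser/Thr 18 peptide controls, values from dose-response curves by non-linear regression.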 The format is biochemical. As to conditions: 30 μM ATP, 1 h room temperature.
A further assay deals with recombinant GSK3β kinase (Homo sapiens (Human), UniProt P49841). As to the kind of experiment: GSK3β kinase assay (Ser/Thr 09 peptide Z-lyte FRET).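 Note: kinase activity read as coumarin to fluorescein emission ratio, 11-point threefold dilutions from 10 µM to 0.0003 µM in duplicate, unphosphorylated and phosphorylated peptide as 0% and 100% controls.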 The format is biochemical. As to conditions: 46 μM ATP, 1 h room temperature.
In assay [3] the test system is Tau phosphorylation at Ser396 (pSer396). As to the kind of experiment: Tau phosphorylation assay (pSer396 ELISA / western blot) in SH-SY5Y cells.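 Note: EC50 for reduction of Tau pSer396 in lysed cells, measured by colorimetric ELISA or chemiluminescent western blot, both using the same pSer396 antibody.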 It counts as cell-based, human. As to conditions: Homo sapiens; SH-SY5Y cells, overnight (16-18 h) exposure; read-out: pSer396 Tau EC50. A general note: In an ELISA, binding on a coated surface is turned into a signal by an enzyme label.
Experimental: Two days before treatment, cells were seeded onto 96 well plates at 5×10^4 cells/well.
Wells were visually checked for cell death or change in morphology and supernatants were tested for cytotoxicity by measurement of lactate dehydrogenase release (LDH, CytoToxOne kit, Promega) if necessary.
Cells were lysed with RIPA buffer complemented with phosphatase and protease inhibitors then lysates were spun down at 12,000 g for 10 min to remove any cellular debris. Lysates are then either directly tested for pSer396 by ELISA (Life Technology, Kit KHB7031) or loaded on NuPage Bis-Tris gels for western blot analysis. Colorimetric detection of ELISA signal is performed by Cytation3 plate reader (Biotek) and the chemiluminescence signal for HRP-linked antibodies used in western blotting is detected using a Carestream Image Station. The same pSer396 antibody is used for detection of pTau in both assays.

The test system of assay [4] is SW480 colon carcinoma cells. Kind of assay: Cell viability assay (CellTiter-Glo). It counts as cell-based, human. As to conditions: Homo sapiens; for EC50: 96 h, SW480 cells, CellTiter-Glo, four days incubation; for inhibition at 10 µM: SW480, read-out: percent inhibition at 10 μM.
Another assay relates to IL-6. As to the kind of experiment: IL-6 inhibition in LPS-stimulated human peripheral blood mononuclear cells (HTRF).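 For all read-outs here: IL-6 detected by HTRF with an XL665- and Cryptate-labelled anti-IL-6 antibody pair, samples run in duplicate, EC50 obtained from a four-parameter Levenberg-Marquardt curve fit.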 It counts as cell-based. As to conditions: Homo sapiens, PBMC; for EC50: Table 9, huPBMCs, LPS 50 ng/mL, 22 hours, dose-response starting from 10 μM; for inhibition at 10 µM: read-out: percent value in parentheses beside EC50 >10 μM. In general terms: In TR-FRET formats the signal depends on donor and acceptor labels being close together.

Sequence of recombinant GSK3β kinase (P49841 whole entry): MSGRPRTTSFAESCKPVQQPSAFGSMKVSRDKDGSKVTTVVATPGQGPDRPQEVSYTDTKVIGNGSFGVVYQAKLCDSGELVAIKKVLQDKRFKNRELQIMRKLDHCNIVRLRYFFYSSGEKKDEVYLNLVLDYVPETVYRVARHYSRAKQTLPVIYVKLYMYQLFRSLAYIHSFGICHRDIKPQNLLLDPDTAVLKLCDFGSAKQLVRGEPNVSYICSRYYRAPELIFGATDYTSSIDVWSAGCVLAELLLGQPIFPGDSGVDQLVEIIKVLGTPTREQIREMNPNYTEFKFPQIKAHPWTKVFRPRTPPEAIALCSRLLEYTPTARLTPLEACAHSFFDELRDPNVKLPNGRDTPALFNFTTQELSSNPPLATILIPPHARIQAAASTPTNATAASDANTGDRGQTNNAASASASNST
Experimental for IL-6: After 22 hour incubation, a mixture of anti-IL6 XL665 and anti-IL-6 Cryptate diluted in reconstitution buffer (Catalog #62IL6PEC, Cisbio Inc., Bedford, Mass.) was added to each well. […] All samples were processed in duplicate. […] EC50 was determined using software generated by Dotmatics Limited (Windhill Bishops Stortford Herts, UK) using the Levenberg-Marquardt 4 parameter fitting procedure with finite different gradients.

As to `CN1CCC(N(C)C(=O)Nc2cc3cc(-c4cnn(C)c4)ccc3cn2)CC1` [Compound 1037, 1-methyl-3-(6-(1-methyl-1H-pyrazol-4-yl)isoquinolin-3-yl)-1-(1-methylpiperidin-4-yl)urea], the EC50 is 3640 nM in assay [1]; 10.2 nM in assay [2]; 1920 nM at recombinant GSK3β kinase; above 10000 nM in assay [3]; above 10000 nM in assay [4]; 7520 nM in the assay on IL-6. The inhibition at 10 µM in assay [4] stood at 32.7%.
On to `CN1CCC(NC(=O)Nc2cc3cc(-c4cnn(C)c4)ccc3cn2)CC1` [Compound 1090, 1-(6-(1-Methyl-1H-pyrazol-4-yl)isoquinolin-3-yl)-3-(1-methylpiperidin-4-yl)urea], for which the EC50 in assay [1] came to 722 nM; in assay [2] it was 6.9 nM; at recombinant GSK3β kinase, 288 nM; in assay [3] it was 969 nM; in assay [4] it was 994 nM; with IL-6, 484 nM.
`CN1CCCC(C(=O)Nc2cc3cc(-c4cnn(C)c4)ccc3cn2)CC1` (centres unmarked) [Compound 1080, 1-Methyl-N-(6-(1-methyl-1H-pyrazol-4-yl)isoquinolin-3-yl)azepane-4-carboxamide]: the EC50 in assay [1] turned out to be 1220 nM; in assay [2], 3.2 nM; on recombinant GSK3β kinase, 56 nM; in assay [3], 251 nM; in assay [4] it was 1380 nM; with IL-6, 1070 nM.
In the case of `Cc1nnc(-c2ccc3cnc(NC(=O)CN4CCCOCC4)cc3c2)s1` [Compound 1049, N-(6-(5-Methyl-1,3,4-thiadiazol-2-yl)isoquinolin-3-yl)-2-(1,4-oxazepan-4-yl) acetamide], the EC50 in assay [1] is 2540 nM; in assay [2] it was 6.9 nM; at recombinant GSK3β kinase, 12 nM; in assay [3] it was 319 nM; in assay [4], above 10000 nM; in the assay on IL-6, above 10000 nM. Also, the inhibition at 10 µM in assay [4] worked out at 31.3%; in the assay on IL-6, 10.4%.
In the case of `Cn1cc(-c2ccc3cnc(NC(=O)CCN4CCOCC4)cc3c2)cn1` [Compound 1034, N-(6-(1-Methyl-1H-pyrazol-4-yl)isoquinolin-3-yl)-3-morpholinopropanamide], the EC50 in assay [1] worked out at 2040 nM; in assay [2], 1.9 nM; on recombinant GSK3β kinase it was 27 nM; in assay [3] it was 430 nM; in assay [4], 3240 nM; with IL-6, 3320 nM.
With `CCN(CC)c1ncc(-c2ccc3cnc(NC(=O)CN4CCN(C)CC4)cc3c2)s1` [Compound 1048, N-(6-(2-(Diethylamino)thiazol-5-yl)isoquinolin-3-yl)-2-(4-methylpiperazin-1-yl)acetamide], the EC50 is 9380 nM in assay [1]; 541 nM in assay [2]; 5810 nM on recombinant GSK3β kinase; 4700 nM in assay [3]; 4060 nM in assay [4]; above 10000 nM in the assay on IL-6. Also, the inhibition at 10 µM with IL-6 was 4.3%.
On to `Cc1ncc(-c2ccc3cnc(NC(=O)CN4CCOCC4)cc3c2)o1` [Compound 1067, N-(6-(2-Methyloxazol-5-yl)isoquinolin-3-yl)-2-morpholinoacetamide], for which the inhibition at 10 µM came to 48.7% in assay [1] (SW480, read-out: percent inhibition at 10 μM) and 43.1% in assay [4]. For the same molecule, the EC50 in assay [1] is above 10000 nM; in assay [2], 18.8 nM; on recombinant GSK3β kinase, 67 nM; in assay [3], 729 nM; in assay [4] it was above 10000 nM; in the assay with IL-6, 8940 nM.
With `CNc1ncc(-c2ccc3cnc(NC(=O)C4CCN(C)CC4)cc3c2)s1` [Compound 1041, 1-Methyl-N-(6-(2-(methylamino)thiazol-5-yl)isoquinolin-3-yl)piperidine-4-carboxamide], the EC50 in assay [1] stood at 776 nM; in assay [2] it was 3.3 nM; on recombinant GSK3β kinase, 58 nM; in assay [3] it was 1300 nM; in assay [4], 2760 nM; with IL-6, 941 nM.
For the molecule `Cc1ncc(-c2ccc3cnc(NC(=O)[C@H]4C[C@H](N5CCOCC5)C4)cc3c2)o1` [Compound 1061, trans-N-(6-(2-Methyloxazol-5-yl)isoquinolin-3-yl)-3-morpholinocyclobutane-1-carboxamide], the EC50 in assay [1] is 1610 nM; in assay [2], 4.3 nM; on recombinant GSK3β kinase, 8 nM; in assay [3] it was 58 nM; in assay [4], 1600 nM; with IL-6, 947 nM.
As for `CN1CCN(CC23CC(C(=O)Nc4cc5cc(-c6cnn(C)c6)ccc5cn4)(C2)C3)CC1` [Compound 1088, N-(6-(1-Methyl-1H-pyrazol-4-yl)isoquinolin-3-yl)-3-((4-methylpiperazin-1-yl)methyl)bicyclo[1.1.1]pentane-1-carboxamide], the EC50 stood at 7400 nM in assay [1]; 9.3 nM in assay [2]; 937 nM at recombinant GSK3β kinase; 8600 nM in assay [3]; 9190 nM in assay [4]; 5980 nM with IL-6.
With `CC(C)CN1CCCC(C(=O)Nc2cc3cc(-c4cnn(C)c4)ccc3cn2)CC1` (centres unmarked) [Compound 1079, 1-Isobutyl-N-(6-(1-methyl-1H-pyrazol-4-yl)isoquinolin-3-yl)azepane-4-carboxamide], the EC50 in assay [1] was determined as 1430 nM; in assay [2] it was 5.7 nM; on recombinant GSK3β kinase, 48 nM; in assay [3], 190 nM; in assay [4], 2600 nM; in the assay on IL-6, 1210 nM.
On to `CN1CCC(C(=O)Nc2cc3cc(-c4cnn(C)c4)c(Cl)cc3cn2)CC1` [Compound 1027, N-(7-Chloro-6-(1-methyl-1H-pyrazol-4-yl)isoquinolin-3-yl)-1-methylpiperidine-4-carboxamide], for which the EC50 in assay [1] was 875 nM; in assay [2] it was 50 nM; on recombinant GSK3β kinase it was 3070 nM; in assay [3], 2200 nM; in assay [4], 488 nM; with IL-6, above 10000 nM. Also, in the assay with IL-6, the inhibition at 10 µM stood at 0%.
For the molecule `Cc1ncc(-c2ccc3cnc(NC(=O)CCN4CCOCC4)cc3c2)o1` [Compound 1068, N-(6-(2-Methyloxazol-5-yl)isoquinolin-3-yl)-3-morpholinopropanamide], the EC50 in assay [1] is 3720 nM; in assay [2], 5.3 nM; on recombinant GSK3β kinase, 36 nM; in assay [3] it was 689 nM; in assay [4], above 10000 nM; with IL-6 it was 3400 nM. The inhibition at 10 µM in assay [4] amounted to 46%.
Consider `CC(F)(F)CN1CCC(C(=O)Nc2cc3cc(-c4cncs4)ccc3cn2)CC1` [Compound 731, 1-(2,2-Difluoropropyl)-N-(6-(thiazol-5-yl)isoquinolin-3-yl)piperidine-4-carboxamide], for which the EC50 in assay [1] stood at 3050 nM; in assay [2], 1.4 nM; on recombinant GSK3β kinase, 42 nM; in assay [3], 450 nM; in assay [4] it was 1100 nM; in the assay on IL-6 it was 1180 nM.
Regarding `Cc1nnc(-c2ccc3cnc(NC(=O)[C@H]4CC[C@H](CO)CC4)cc3c2)s1` [Compound 888, trans-4-(Hydroxymethyl)-N-(6-(5-methyl-1,3,4-thiadiazol-2-yl)isoquinolin-3-yl)cyclohexane-1-carboxamide], the EC50 came out at 1040 nM in assay [1]; 1.4 nM in assay [2]; 8 nM at recombinant GSK3β kinase; 195 nM in assay [3]; 2470 nM in assay [4]; 3940 nM in the assay on IL-6.
Turning to `Cc1ncc(-c2ccc3cnc(NC(=O)CN4CCCCC4)cc3c2)o1` [Compound 1028, N-(6-(2-Methyloxazol-5-yl)isoquinolin-3-yl)-2-(piperidin-1-yl)acetamide], the EC50 in assay [1] was determined as 3870 nM; in assay [2], 22.5 nM; at recombinant GSK3β kinase, 104 nM; in assay [3] it was 536 nM; in assay [4], 3520 nM; in the assay on IL-6, 1930 nM.
For the molecule `CN(C)c1nnc(-c2ccc3cnc(NC(=O)C4CCNCC4)cc3c2)o1` [Compound 1075, N-(6-(5-(Dimethylamino)-1,3,4-oxadiazol-2-yl)isoquinolin-3-yl)piperidine-4-carboxamide], the EC50 in assay [1] was 2540 nM; in assay [2] it was 13.7 nM; at recombinant GSK3β kinase it was 15 nM; in assay [3] it was 709 nM; in assay [4] it was 5280 nM; with IL-6 it was 3270 nM.
For `Cn1cc(-c2ccc3cnc(NC(=O)[C@H]4C[C@H](N5CCOCC5)C4)cc3c2)cn1` [Compound 1035, trans-N-(6-(1-Methyl-1H-pyrazol-4-yl)isoquinolin-3-yl)-3-morpholinocyclobutane-1-carboxamide], the EC50 in assay [1] came out at 1370 nM; in assay [2], 2.6 nM; on recombinant GSK3β kinase it was 10 nM; in assay [3], 129 nM; in assay [4], 2460 nM; in the assay with IL-6, 1030 nM.
Regarding `Cn1cc(-c2ccc3cnc(NC(=O)CN4CCC(O)CC4)cc3c2)cn1` [Compound 1078, 2-(4-Hydroxypiperidin-1-yl)-N-(6-(1-methyl-1H-pyrazol-4-yl)isoquinolin-3-yl)acetamide], the EC50 in assay [1] is 4030 nM; in assay [2], 6 nM; on recombinant GSK3β kinase, 70 nM; in assay [3], 458 nM; in assay [4], 4410 nM; with IL-6, 3240 nM.

The EC50 is the concentration that produces a half-maximal response.
